Results: patent US7101692B2 (priority 1999, dated 2006)
“Also recorded” adds a separate entry of the source.

How the values were obtained:
[1] = system: sorting reaction (sortase cleavage of Seb-Spa490-524 P2 precursor at the LPXTG motif); format: cell-based, S. aureus OS2
[2] = molecular target: T1, SrtADN (Staphylococcus aureus, UniProt Q2FV99); format: biochemical, S. aureus; conditions: 5 mM MTSET or 5 mM pHMB, 5 μM SrtADN
[3] = molecular target: sortase (Staphylococcus aureus, UniProt Q2FV99); format: biochemical; conditions: pre-incubation of staphylococcal extracts with 5 mM MTSET
Sequence of sortase (Q2FV99 whole entry): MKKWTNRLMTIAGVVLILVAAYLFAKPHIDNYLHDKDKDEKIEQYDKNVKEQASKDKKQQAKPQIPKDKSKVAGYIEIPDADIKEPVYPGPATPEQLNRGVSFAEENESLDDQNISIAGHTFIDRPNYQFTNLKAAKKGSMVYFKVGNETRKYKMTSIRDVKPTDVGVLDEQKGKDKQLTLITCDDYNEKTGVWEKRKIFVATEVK

[4] = system: S. aureus OS2 (pSeb-Spa490-524); format: cell-based
[5] = system: cell wall sorting reaction (surface protein anchoring); format: cell-based, S. aureus OS2
[6] = system: cell wall synthesis; format: cell-based, staphylococci (S. aureus OS2)
[7] = system: wild-type staphylococci, strains SM317 and SM329; format: cell-based, S. aureus
[8] = molecular target: T1, SrtADN; format: biochemical, S. aureus; conditions: absence of peptidoglycan substrate
Text: The N-terminal membrane anchor segment of […] (residues 2-25) were replaced with a six-histidine tag ([…]). In the absence of the peptidoglycan substrate, SrtA DN catalyzes peptide bond hydrolysis and cleaves LPETG peptide, presumably between the threonine and the glycine (Ton-That et al., 2000).

[9] = system: staphylococci; format: cell-based, S. aureus OS2

T1 sequence (Q2FV99 26-206): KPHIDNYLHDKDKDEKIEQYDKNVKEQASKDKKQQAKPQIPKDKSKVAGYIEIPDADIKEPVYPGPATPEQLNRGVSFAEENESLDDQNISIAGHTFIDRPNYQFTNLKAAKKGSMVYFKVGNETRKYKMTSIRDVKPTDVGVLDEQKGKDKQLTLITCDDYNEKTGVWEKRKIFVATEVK

In the case of `O[C@H](CS)[C@H](O)CS` (racemic) [dithiothreitol (DTT), dithiothreitol], the “interference with cleavage of sorting signals at the LPXTG motif / cell wall sorting (in words)” value [1] is reported as “did not affect the sorting reaction”.

In the case of `OCCS` [2-mercaptoethanol], the “interference with cleavage of sorting signals at the LPXTG motif / cell wall sorting (in words)” value [1] is reported as “did not affect the sorting reaction”.

With `CS(=O)(=O)SCCS(=O)(=O)O` [(2-sulfonatoethyl)methanethiosulfonate] the “interference with cleavage of sorting signals at the LPXTG motif / cell wall sorting (in words)” value [1] was “interfered with sorting albeit not as effectively as MTSET”.

With `CCN1C(=O)C=CC1=O` [N-ethylmaleimide] the “interference with cleavage of sorting signals at the LPXTG motif / cell wall sorting (in words)” value [1] was “did not”.

For `C[N+](C)(C)CCSS(C)(=O)=O` [[2-(trimethylammonium)ethyl]methanethiosulfonate], the “inhibition of LPXTG peptide cleavage” value [2] was “inhibited; also recorded: abolished all enzymatic activity”, the “inhibition of LPXTG peptide cleavage” value [3] was “inhibited” and the “incorporation of [35S]methionine by staphylococci” value [4] was “prevented incorporation”. For the same molecule, the “protein export (Sec-dependent export of P1 precursor)” value [4] was “remained unaltered” and the “interference with cleavage of sorting signals at the LPXTG motif / cell wall sorting (in words)” value [1] was “interfered with the cleavage of sorting signals at the LPXTG motif”.

With `NC(=O)CI` [iodoacetamide] the “interference with cleavage of sorting signals at the LPXTG motif / cell wall sorting (in words)” value [1] was “did not”.

`O=C(O)CI` [iodoacetic acid] was tested, and the “interference with cleavage of sorting signals at the LPXTG motif / cell wall sorting (in words)” value [1] was “did not”.

With `CN[C@H](CC(C)C)C(=O)N[C@H]1C(=O)N[C@@H](CC(N)=O)C(=O)N[C@H]2C(=O)N[C@H]3C(=O)N[C@H](C(=O)N[C@H](C(=O)O)c4cc(O)cc(O)c4-c4cc3ccc4O)[C@H](O)c3ccc(c(Cl)c3)Oc3cc2cc(c3O[C@@H]2O[C@H](CO)[C@@H](O)[C@H](O)[C@H]2O[C@H]2C[C@](C)(N)[C@H](O)[C@H](C)O2)Oc2ccc(cc2Cl)[C@H]1O` [vancomycin] the “[P2]/[M]” value [5] was 0.47 ± 0.04, the “effect on rate of cell wall sorting (P2 precursor accumulation), in words” value (“effect on rate of cell wall sorting” for short) [5] was “led to a steady accumulation of P2 precursor” and the “fold inhibition of cell wall synthesis” value [6] was 9.5 fold. The “inhibition of cell wall synthesis (lysine/leucine ratio)” value [6] was 20 fold.

lysostaphin was tested, and the “growth inhibition by lysostaphin” value [7] was “inhibited growth of wild-type staphylococci”.

In the case of methylmethane thiosulfonate, the “inhibition of LPETG peptide cleavage (peptide bond hydrolysis)” value [8] is reported as “inhibited”.

In the case of moenomycin, the “[P2]/[M]” value [5] is reported as 0.24 ± 0.04, the “effect on rate of cell wall sorting” value [5] is reported as “similar, albeit weaker effect” and the “growth rate of staphylococci” value [9] is reported as “reduced the growth rate”. For the same molecule, the “fold inhibition of cell wall synthesis” value [6] was 1.6 fold.

“p-hydroxymercuribenzoic acid [p-hydroxymercuribenzoic acid (pHMB)]” was tested, and the “inhibition of LPXTG peptide cleavage” value [2] was “inhibited” and the “interference with cleavage of sorting signals at the LPXTG motif / cell wall sorting (in words)” value [1] was “displayed an inhibitory effect”.

With penicillin the “[P2]/[M]” value [5] was 0.10 ± 0.01, the “effect on rate of cell wall sorting” value [5] was “did not alter the rate of cell wall sorting” and the “growth rate of staphylococci” value [9] was “reduced the growth rate”. For the same molecule, the “fold inhibition of cell wall synthesis” value [6] was 3.3 fold.
